The source of these data is US20190119348A1, “PARATHYROID HORMONE RECEPTOR 1 ANTAGONIST AND INVERSE AGONIST POLYPEPTIDES AND METHODS OF THEIR USE” (The General Hospital Corporation, priority 2016, published 2019).

The target in assay [1] is T1, PTHR1 (hPTHR1) (Homo sapiens, UniProt Q03431).
T1 construct: expressed in transfected cells; host or cells: GP-2.3 (HEK-293 stably transfected with hPTHR1 and GloSensor)
T1 sequence (Q03431 27-593): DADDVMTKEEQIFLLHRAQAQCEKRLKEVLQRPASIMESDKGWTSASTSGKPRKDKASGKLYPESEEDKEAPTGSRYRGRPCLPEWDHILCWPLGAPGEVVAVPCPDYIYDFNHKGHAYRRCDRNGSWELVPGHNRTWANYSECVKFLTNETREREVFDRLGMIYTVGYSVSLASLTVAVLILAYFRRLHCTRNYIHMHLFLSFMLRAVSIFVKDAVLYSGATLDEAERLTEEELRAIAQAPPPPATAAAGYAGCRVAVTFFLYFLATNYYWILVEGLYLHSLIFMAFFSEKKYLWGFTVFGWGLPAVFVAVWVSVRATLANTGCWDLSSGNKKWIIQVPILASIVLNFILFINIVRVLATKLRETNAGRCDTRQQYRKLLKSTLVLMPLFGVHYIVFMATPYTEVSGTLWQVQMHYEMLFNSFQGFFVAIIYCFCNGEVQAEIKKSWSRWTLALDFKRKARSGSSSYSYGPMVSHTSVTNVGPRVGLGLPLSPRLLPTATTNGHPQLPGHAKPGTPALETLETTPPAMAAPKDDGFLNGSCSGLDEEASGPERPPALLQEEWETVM
In words: Radioligand competition binding in GP-2.3 cells. The settings on record: for IC50: means of four experiments. How it is done:
Intact cell binding reactions were performed in 96-well plates, and, following incubation, the cells were lysed with 1N NaOH, and the lysate was counted for gamma radiation. For membrane dissociation assays, reactions were assembled in 15 cc tubes, and, at times following membrane addition (t=0), aliquots were withdrawn and filtered through a well of a vacuum filtration 96-well plate, rinsed, and, after washing, the filters were removed and counted for gamma irradiation. […] Curves were fit to the data using a four-parameter sigmoidal dose-response equation.
Pharmacological properties of the ligands were assessed in cells expressing the PTHR1 and the GloSensor™ cAMP reporter. The assays used GP-2.3 cells, derived from HEK293 cells by stable transfection with the hPTHR1 and GloSensor™, as well as SGS-72 cells, which are derived from the human osteosarcoma cell line, Saos-2, in which is endogenously expressed the hPTHR1, by stable transfection with GloSensor™. Binding of representative polypeptides to the PTHR1 was assessed in GP-2.3 cells by radioligand competition methods (FIGS. 1A and 1B, Table 3).
The assays were performed in GP-2.3 cells with the two tracer ^125I-radioligands shown; values are half-maximal inhibitory concentration (pIC50) and corresponding nanomolar value (below) derived from curve fitting ligand dose-response data. Data are means of four experiments.
(Displacement assays read how much labelled ligand stays bound in the presence of the test substance.)

For assay [2], the target named is T2, wild-type PTHR (Mus musculus, UniProt P41593).
T2 construct: Wild-type mice were injected with a PTH agonist analog; from tissue; host or cells: whole animal, wild-type mice (C57BL/6J per methods)
T2 sequence (P41593 27-591): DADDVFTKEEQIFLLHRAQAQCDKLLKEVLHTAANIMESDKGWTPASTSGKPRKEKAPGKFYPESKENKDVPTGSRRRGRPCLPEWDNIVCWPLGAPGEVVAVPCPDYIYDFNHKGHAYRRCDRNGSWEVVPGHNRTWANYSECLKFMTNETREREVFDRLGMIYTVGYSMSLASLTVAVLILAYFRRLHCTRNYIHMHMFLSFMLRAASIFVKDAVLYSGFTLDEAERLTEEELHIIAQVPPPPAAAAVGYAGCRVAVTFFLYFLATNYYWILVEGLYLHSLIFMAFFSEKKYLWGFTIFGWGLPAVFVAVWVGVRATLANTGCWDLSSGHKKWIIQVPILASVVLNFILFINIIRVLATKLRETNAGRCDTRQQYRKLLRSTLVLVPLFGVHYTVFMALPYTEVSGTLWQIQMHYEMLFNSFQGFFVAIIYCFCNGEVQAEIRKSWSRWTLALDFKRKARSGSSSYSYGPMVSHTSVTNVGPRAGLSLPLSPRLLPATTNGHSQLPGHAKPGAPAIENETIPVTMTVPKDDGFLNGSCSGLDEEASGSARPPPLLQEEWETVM
In words: Mouse transient model of hyperparathyroidism (PEG-PTH(1-35)-induced hypercalcemia), blood Ca2+. The format is in vivo. The settings on record: 10-week old female CD1 mice; PEG-PTH(1-35)-1925 50 nmol/kg i.v. at −24 h; peptide 500 nmol/kg at 0 h; P<0.05 vs vehicle at 2 h. How it is done:
(§1) Mice were injected IV via the tail vein or subcutaneously with ligands in vehicle (0.05% Tween80; 10 mM citrate; 150 mM NaCl; pH 5.0) to give the intended final ligand dose (e.g. 50 nmol/kg body weight). At times immediately before (t=0) and after injection, tail vein blood was collected and analyzed for blood ionized calcium (Ca^2+) measured with a RAPIDLAB 348 analyzer (SIEMENS Healthcare Diagnostic, United Kingdom).
To study antagonism at the wild-type PTHR under conditions of excess PTH, as occurs in humans with hyperparathyroidism, we developed a mouse non-genetic, transient model of hyperparathyroidism. Wild-type mice were injected with a PTH agonist analog, PEG-PTH(1-35), which induces hypercalcemia lasting between 24 and 72 hours after a single s.c. injection (see Guo et al., Journal of Bone and Mineral Research, 32:86-98, 2017). Antagonists were injected after 24 hours following the injection of PEG-PTH(1-35) and effects on blood Ca^2+ levels were measured. The results are illustrated in FIGS. 12A and 12B.

Assay [3] concerns the target T2, wild-type PTHR. In words: Mouse model of hypercalcemia of malignancy (co-injection with PTHrP(1-36)), blood Ca2+. The format is in vivo. The settings on record: 10-week old female CD1 mice; i.v. co-injection with PTHrP(1-36)-1880 10 nmol/kg; peptide 500 nmol/kg. How it is done:
as §1
To study antagonism at the wild-type PTHR under conditions of excess PTHrP, as occurs in humans with hypercalcemia of malignancy, we co-injected wild-type mice with PTHrP(1-36) and a test antagonist and measured effects on blood Ca^2+ levels. The results are illustrated in FIG. 13.

Read-outs that look alike come from different tables or passages of the source. Where a SMILES comes first, the peptide text is derived from it. [ ]: non-standard residue; d: D form.

Turning to `CC[C@H](C)[C@H](N)C(=O)N[C@@H](CCC(N)=O)C(=O)N[C@@H](CC(C)C)C(=O)N[C@@H](CCSC)C(=O)N[C@@H](Cc1c[nH]cn1)C(=O)N[C@@H](CCC(N)=O)C(=O)N[C@@H](CCCNC(=N)N)C(=O)N[C@H](Cc1c[nH]c2ccccc12)C(=O)N[C@@H](CCCCN)C(=O)N[C@@H](Cc1c[nH]c2ccccc12)C(=O)N[C@H](C(=O)N[C@@H](CCC(N)=O)C(=O)N[C@@H](CC(=O)O)C(=O)N[C@@H](C)C(=O)N[C@@H](CCCNC(=N)N)C(=O)N[C@@H](CCCNC(=N)N)C(=O)N[C@@H](CCCNC(=N)N)C(=O)N[C@@H](C)C(=O)N[C@@H](Cc1c[nH]c2ccccc12)C(=O)N[C@@H](CC(C)C)C(=O)N[C@@H](Cc1c[nH]cn1)C(=O)N[C@@H](CCCCN)C(=O)N[C@@H](CC(C)C)C(=O)N[C@H](C(=O)N[C@@H](C)C(=O)N[C@@H](CCC(=O)O)C(=O)N[C@H](C(=O)N[C@@H](Cc1c[nH]cn1)C(=O)N[C@H](C(=O)N[C@@H](C)C(=O)N[C@@H](CCC(=O)O)C(=O)N[C@H](C(N)=O)[C@@H](C)CC)[C@@H](C)O)[C@@H](C)CC)[C@@H](C)CC)[C@@H](C)CC` [compound 1949, dW12, W23-LA-PTH(5-36)] (H-IQLMHQR[dW]KWIQDARRRAWLHKLIAEIHTAEI-NH2; N-terminus assumed), in assay [1] (radioligand competition), the “apparent PTHR1 affinity compared with dTrp^12-PTH(7-34)-1894” value is recorded as “at least as strong”. Also, the IC50 in assay [1] (tracer ^125I-PTH(1-34), read-out: half-maximal inhibitory concentration, corresponding nanomolar value, tracer ^125I-PTH(1-34)) came to 22.3 nM; in assay [1] (tracer ^125I-PTHrP(5-36), read-out: half-maximal inhibitory concentration, corresponding nanomolar value, tracer ^125I-PTHrP(5-36)), 17.7 nM. In addition, in assay [2], the “effect on blood Ca^2+ (FIG. 12A)” value is “reduced blood Ca^2+”. In addition, the “effect on blood Ca^2+ levels (FIG. 13)” value in assay [3] is on record as “significant reduction of blood Ca^2+ levels”.
